Data: paper PMC7674464, “Effect of pH on the influenza fusion peptide properties unveiled by constant-pH molecular dynamics simulations combined with experiment” (Scientific Reports, 2020)
Where two headings read alike, the source gives them in different places. Where no end group is shown, it is not given here.

Legend:
[1] = not given; remark: listed apart in the source
[2] = 16000 nM, pH 7.4
[3] = biological target: Asp19 (UniProt position 362, WTGMIDGWYGY); experiment: NMR; conditions: micelle-bound peptide with lysine tail; cited from earlier work
[4] = biological target: Glu11 (UniProt position 354, IAGFIEGGWTG); experiment: NMR; conditions: micelle-bound peptide with lysine tail; cited from earlier work
[5] = biological target: Nterm1 (UniProt position 344, SIQSRGLFGAI); experiment: NMR; conditions: micelle-bound peptide with lysine tail; cited from earlier work

Substance | amide I band peak position [cm⁻¹] | partition coefficient (Kp) between the aqueous and lipid phases ([1]; pH 5) | partition coefficient (Kp) between the aqueous and lipid phases ([1]; pH 7.4) | percentage of lipid mixing [2] [%] | pKa [3] | pKa [4] | pKa [5]
GLFGAIAGFIEGGWTGMIDGWYGS [influenza fusion peptide] | 1660 | (1.0 ± 0.1) × 10^4 | (2.9 ± 0.4) × 10^4 | 23.9 ± 1.8 |  |  | 
Influenza hemagglutinin HA2 fusion peptide (HAfp23) with C-terminal hydrophilic lysine tail (Influenza A virus (subtype H1; strain not stated)) |  |  |  |  | 4.35 | 5.31 | 8.8
